In US11524966B1 (Valo Early Discovery, Inc., priority 2017, dated 2022):
pIC50: −log10 of the molar value.

biological target: T1, USP25 (USP25-His6, Boston Biochem E-546) (Homo sapiens, UniProt Q9UHP3); assay: Ubiquitin-Rhodamine 110 Assay for USP25 Activity, Example A-2; format: biochemical; settings: Ubiquitin-Rhodamine 110 assay, Example A-2; read-out: USP25 A-2 IC50 range
T1 construct: His6; purchased Boston Biochem E-546
T1 sequence (Q9UHP3 1-1055): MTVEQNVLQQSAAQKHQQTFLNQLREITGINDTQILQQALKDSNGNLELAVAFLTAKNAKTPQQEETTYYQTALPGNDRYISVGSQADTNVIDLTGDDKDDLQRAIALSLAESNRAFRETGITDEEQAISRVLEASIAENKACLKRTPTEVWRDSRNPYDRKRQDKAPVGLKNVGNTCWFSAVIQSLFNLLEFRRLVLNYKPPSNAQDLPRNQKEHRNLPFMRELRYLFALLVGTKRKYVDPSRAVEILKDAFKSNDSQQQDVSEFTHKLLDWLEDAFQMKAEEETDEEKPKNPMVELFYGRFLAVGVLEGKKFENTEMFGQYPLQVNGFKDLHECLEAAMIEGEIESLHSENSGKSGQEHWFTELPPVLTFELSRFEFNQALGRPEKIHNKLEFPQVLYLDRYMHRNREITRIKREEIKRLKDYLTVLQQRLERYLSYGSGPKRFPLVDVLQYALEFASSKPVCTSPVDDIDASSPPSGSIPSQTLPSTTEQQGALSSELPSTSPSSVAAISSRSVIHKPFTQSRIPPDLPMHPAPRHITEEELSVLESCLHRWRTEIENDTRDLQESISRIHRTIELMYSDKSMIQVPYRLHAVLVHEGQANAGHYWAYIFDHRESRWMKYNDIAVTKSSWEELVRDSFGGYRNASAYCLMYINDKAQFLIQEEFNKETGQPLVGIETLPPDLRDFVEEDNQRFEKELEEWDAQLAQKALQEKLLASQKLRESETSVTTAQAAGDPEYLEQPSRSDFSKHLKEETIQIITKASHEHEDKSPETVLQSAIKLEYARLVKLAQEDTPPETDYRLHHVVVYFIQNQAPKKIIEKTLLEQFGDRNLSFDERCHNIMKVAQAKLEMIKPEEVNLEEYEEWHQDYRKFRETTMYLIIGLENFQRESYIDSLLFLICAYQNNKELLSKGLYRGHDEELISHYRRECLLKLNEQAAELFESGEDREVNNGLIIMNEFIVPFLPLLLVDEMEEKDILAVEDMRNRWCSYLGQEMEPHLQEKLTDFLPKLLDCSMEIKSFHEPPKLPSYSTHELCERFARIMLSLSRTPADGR
Method in brief: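 75 pM USP25-His6 was preincubated 30 min with compound (10-point 3-fold series, 25 μM–1.3 nM) in pH 8.0 Tris buffer with BME, BGG and Triton X-100. Then 25 nM Ub-Rh110 (<<Km) was added for 45 min at room temperature, stopped with citric acid, fluorescence read at 485/535 nm, IC50 by 4-parameter fit.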

| Compound | pIC50 |
| --- | --- |
| CO[C@H]1CN(c2cc3c(cc2F)C[C@@H](NC(=O)c2sc4nc(C)ccc4c2N)CO3)C[C@@H]1N [Example 94, 3-amino-N-[(3R)-7-[(3S,4S)-3-amino-4-methoxypyrrolidin-1-yl]-6-fluoro-3,4-dihydro-2H-1-benzopyran-3-yl]-6-methylthieno[2,3-b]pyridine-2-carboxamide] | 5.70 to 6.70 |
| Cc1ccc2c(N)c(C(=O)N[C@H]3COc4c(C#N)c(N5CC6CCC(C5)N6)cc(F)c4C3)sc2n1 [Example 95, 3-amino-N-[(3R)-8-cyano-7-{3,8-diazabicyclo[3.2.1]octan-3-yl}-5-fluoro-3,4-dihydro-2H-1-benzopyran-3-yl]-6-methylthieno[2,3-b]pyridine-2-carboxamide] | 5.70 to 6.70 |
| Cc1ccc2c(N)c(C(=O)N[C@H]3COc4c(C#N)c(N5CC6CNCC(C5)O6)cc(F)c4C3)sc2n1 [Example 96, 3-amino-N-[(3R)-8-cyano-5-fluoro-7-{9-oxa-3,7-diazabicyclo[3.3.1]nonan-3-yl}-3,4-dihydro-2H-1-benzopyran-3-yl]-6-methylthieno[2,3-b]pyridine-2-carboxamide] | 6.70 to 7.30 |
| Cc1cnc2c(N)c(C(=O)N[C@H]3COc4cc(N5CC6CCC(C5)N6)c(F)c(F)c4C3)sc2n1 [Example 97, 7-amino-N-[(3R)-7-{3,8-diazabicyclo[3.2.1]octan-3-yl]-5,6-difluoro-3,4-dihydro-2H-1-benzopyran-3-yl]-3-methylthieno[2,3-b]pyrazine-6-carboxamide] | 7.30 to 9.00 |
| Cc1nc2sc(C(=O)N[C@H]3COc4c(F)c(N5CC6CCC(C5)N6)cc(F)c4C3)c(N)c2s1 [Example 98, 6-amino-N-[(3R)-7-{3,8-diazabicyclo[3.2.1]octan-3-yl}-5,8-difluoro-3,4-dihydro-2H-1-benzopyran-3-yl]-2-methylthieno[2,3-d][1, 3]thiazole-5-carboxamide] | 6.70 to 7.30 |
| Cc1ccc2c(N)c(C(=O)N[C@H]3CCc4c(ccc(N5CC6CNCC(C5)O6)c4F)C3)sc2n1 [Example 99, 3-amino-N-[(2S)-5-fluoro-6-{9-oxa-3,7-diazabicyclo[3.3.1]nonan-3-yl}-1,2,3,4-tetrahydronaphthalen-2-yl]-6-methylthieno[2,3-b]pyridine-2-carboxamide] | 7.30 to 9.00 |
| Cc1ccc2c(N)c(C(=O)N[C@@H]3CCc4c(ccc(N5CC6CNCC(C5)O6)c4F)C3)sc2n1 [Example 100, 3-amino-N-[(2R)-5-fluoro-6-{9-oxa-3,7-diazabicyclo[3.3.1]nonan-3-yl}-1,2,3,4-tetrahydronaphthalen-2-yl]-6-methylthieno[2,3-b]pyridine-2-carboxamide] | < 5.70 |
| Cc1ccc2c(N)c(C(=O)N[C@H]3CCc4cc(N5CC6CNCC(C5)O6)c(F)cc4C3)sc2n1 [Example 101, 3-amino-N-[(2S)-7-fluoro-6-{9-oxa-3,7-diazabicyclo[3.3.1]nonan-3-yl}-1,2,3,4-tetrahydronaphthalen-2-yl]-6-methylthieno[2,3-b]pyridine-2-carboxamide] | 5.70 to 6.70 |
| Cc1ccc2c(N)c(C(=O)N[C@H]3CCc4c(ccc(N5CC6CNCC(C5)O6)c4C#N)C3)sc2n1 [Example 102, 3-amino-N-[(2S)-5-cyano-6-{9-oxa-3,7-diazabicyclo[3.3.1]nonan-3-yl}-1,2,3,4-tetrahydronaphthalen-2-yl]-6-methylthieno[2,3-b]pyridine-2-carboxamide] | 6.70 to 7.30 |
| Cc1ccc2c(N)c(C(=O)N[C@H]3COc4c(ccc(N5CC6CCC(C5)N6)c4F)C3)sc2n1 [Example 103, 3-amino-N-[(3R)-7-{3,8-diazabicyclo[3.2.1]octan-3-yl}-8-fluoro-3,4-dihydro-2H-1-benzopyran-3-yl]-6-methylthieno[2,3-b]pyridine-2-carboxamide] | 6.70 to 7.30 |
| Cc1ccc2c(N)c(C(=O)N[C@H]3COc4cc(N5CC6CCC(C5)N6)c(F)cc4C3)sc2n1 [Example 104, 3-amino-N-[(3R)-7-{3,8-diazabicyclo[3.2.1]octan-3-yl]-6-fluoro-3,4-dihydro-2H-1-benzopyran-3-yl]-6-methylthieno[2,3-b]pyridine-2-carboxamide] | 7.30 to 9.00 |
| Cc1ccc2c(N)c(C(=O)N[C@H]3COc4c(ccc(N5CC6CNCC(C5)O6)c4F)C3)sc2n1 [Example 105, 3-amino-N-[(3R)-8-fluoro-7-{9-oxa-3,7-diazabicyclo[3.3.1]nonan-3-yl}-3,4-dihydro-2H-1-benzopyran-3-yl]-6-methylthieno[2,3-b]pyridine-2-carboxamide] | 7.30 to 9.00 |
| Cc1ccc2c(N)c(C(=O)N[C@H]3COc4cc(N5CC6CNCC(C5)O6)c(F)cc4C3)sc2n1 [Example 106, 3-amino-N-[(3R)-6-fluoro-7-{9-oxa-3,7-diazabicyclo[3.3.1]nonan-3-yl}-3,4-dihydro-2H-1-benzopyran-3-yl]-6-methylthieno[2,3-b]pyridine-2-carboxamide] | 6.70 to 7.30 |
| Cc1cnc2c(N)c(C(=O)N[C@H]3COc4c(F)c(N5CC6CCC(C5)N6)cc(F)c4C3)sc2n1 [Example 107, 7-amino-N-[(3R)-7-{3,8-diazabicyclo[3.2.1]octan-3-yl}-5,8-difluoro-3,4-dihydro-2H-1-benzopyran-3-yl]-3-methylthieno[2,3-b]pyrazine-6-carboxamide] | 7.30 to 9.00 |
| Cc1nc2sc(C(=O)N[C@H]3COc4cc(N5CC6CCC(C5)N6)c(F)c(F)c4C3)c(N)c2s1 [Example 108, 6-amino-N-[(3R)-7-{3,8-diazabicyclo[3.2.1]octan-3-yl}-5,6-difluoro-3,4-dihydro-2H-1-benzopyran-3-yl]-2-methylthieno[2,3-d][1,3]thiazole-5-carboxamide] | 6.70 to 7.30 |
| Cc1ccc2c(N)c(C(=O)N[C@H]3CCc4cc(N5CC6CNCC(C5)O6)c(C#N)cc4C3)sc2n1 [Example 109, 3-amino-N-[(2S)-7-cyano-6-{9-oxa-3,7-diazabicyclo[3.3.1]nonan-3-yl}-1,2,3,4-tetrahydronaphthalen-2-yl]-6-methylthieno[2,3-b]pyridine-2-carboxamide] | 5.70 to 6.70 |
| Cc1ccc2c(N)c(C(=O)N[C@H]3COc4c(F)c(N5C[C@@H]6C[C@H]5CN6)cc(F)c4C3)sc2n1 [Example 110, 3-amino-N-[(3R)-7-[(1S,4S)-2,5-diazabicyclo[2.2.1]heptan-2-yl]-5,8-difluoro-3,4-dihydro-2H-1-benzopyran-3-yl]-6-methylthieno[2,3-b]pyridine-2-carboxamide] | 6.70 to 7.30 |
| Cc1ccc2c(N)c(C(=O)N[C@H]3COc4c(F)c(N5C[C@H]6C[C@@H]5CN6)cc(F)c4C3)sc2n1 [Example 111, 3-amino-N-[(3R)-7-[(1R,4R)-2,5-diazabicyclo[2.2.1]heptan-2-yl]-5,8-difluoro-3,4-dihydro-2H-1-benzopyran-3-yl]-6-methylthieno[2,3-b]pyridine-2-carboxamide] | 6.70 to 7.30 |
| Cc1ccc2c(N)c(C(=O)N[C@H]3COc4cc(N5C[C@@H]6C[C@H]5CN6)c(F)c(F)c4C3)sc2n1 [Example 112, 3-amino-N-[(3R)-7-[(1S,4S)-2,5-diazabicyclo[2.2.1]heptan-2-yl]-5,6-difluoro-3,4-dihydro-2H-1-benzopyran-3-yl]-6-methylthieno[2,3-b]pyridine-2-carboxamide] | 5.70 to 6.70 |
| Cc1ccc2c(N)c(C(=O)N[C@H]3COc4nc(N5CC6CNCC(C5)C6(F)F)ccc4C3)sc2n1 [Example 113, 3-amino-N-[(3R)-7-{9 9-difluoro-3,7-diazabicyclo[3.3.1]nonan-3-yl}-2H b,3H,4H-pyrano[2,3-b]pyridin-3-yl]-6-methylthieno[2,3-b]pyridine-2-carboxamide] | 5.70 to 6.70 |
| CCO[C@H]1CN(c2ccc3c(c2)OC[C@H](NC(=O)c2sc4nc(C)ccc4c2N)C3)C[C@@H]1N [Example 115, 3-amino-N-[(3R)-7-[(3S,4S)-3-amino-4-ethoxypyrrolidin-1-yl]-3,4-dihydro-2H-1-benzopyran-3-yl]-6-methylthieno[2,3-b]pyridine-2-carboxamide] | 5.70 to 6.70 |
| CO[C@H]1CN(c2ccc3c(c2)CC[C@H](NC(=O)c2sc4nc(C)ccc4c2N)C3)C[C@@H]1N [Example 116, 3-amino-N-[(2S)-6-[(3S,4S)-3-amino-4-methoxypyrrolidin-1-yl}-1,2,3,4-tetrahydronaphthalen-2-yl]-6-methylthieno[2,3-b]pyridine-2-carboxamide] | 5.70 to 6.70 |
